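Values below derive from 48-hour exposures of cells grown in 96-well plates, with endpoints linearly interpolated between the two concentrations bracketing the appropriate inhibition level. GI50 marks 50% less growth.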 Active and inactive are the calls of the source. No stated cut-off is given here; in the data, active = GI50 up to about 1.1 µM and inactive = higher.
Experiments:
Assay in all cases: inhibition of tumour cell growth, NCI panel, 48 h
OVCAR-3 = tested on: OVCAR-3
MDA-MB-231 = tested on: MDA-MB-231
DU-145 = tested on: DU-145
MDA-N = tested on: MDA-N
COLO 205 = tested on: COLO 205
NCI-H226 = tested on: NCI-H226
SW-620 = tested on: SW-620
SK-OV-3 = tested on: SK-OV-3
SK-MEL-5 = tested on: SK-MEL-5
UACC-62 = tested on: UACC-62
NCI-H23 = tested on: NCI-H23
BT-549 = tested on: BT-549
HOP-92 = tested on: HOP-92
UO-31 = tested on: UO-31
SNB-19 = tested on: SNB-19
KM12 = tested on: KM12
SK-MEL-28 = tested on: SK-MEL-28
M14 = tested on: M14
SK-MEL-2 = tested on: SK-MEL-2
HOP-62 = tested on: HOP-62
SF-539 = tested on: SF-539
HCT-15 = tested on: HCT-15
OVCAR-5 = tested on: OVCAR-5
SR = tested on: SR
CAKI-1 = tested on: CAKI-1
MDA-MB-435 = tested on: MDA-MB-435
OVCAR-8 = tested on: OVCAR-8
ACHN = tested on: ACHN
K562 = tested on: K562
UACC-257 = tested on: UACC-257
MCF7 = tested on: MCF7
HCT-116 = tested on: HCT-116
PC-3 = tested on: PC-3
T47D = tested on: T47D
MOLT-4 = tested on: MOLT-4
LOX IMVI = tested on: LOX IMVI
CCRF-CEM = tested on: CCRF-CEM
SF-295 = tested on: SF-295
TK-10 = tested on: TK-10
EKVX = tested on: EKVX
HL-60 = tested on: HL-60
OVCAR-4 = tested on: OVCAR-4
IGROV-1 = tested on: IGROV-1
SN12C = tested on: SN12C
786-0 = tested on: 786-0
A549 = tested on: A549
HCC 2998 = tested on: HCC 2998
NCI/ADR-RES = tested on: NCI/ADR-RES
A498 = tested on: A498
U-251 = tested on: U-251
RPMI-8226 = tested on: RPMI-8226
HT-29 = tested on: HT-29

In the case of `CCSC1=CC2(O)N(CCc3ccc(OC)c(OC)c3)C(=O)CC2(C(=O)OC)CC1=O` (configuration not stated), the GI50 (OVCAR-3) is reported as 18.2 µM (inactive), the GI50 (MDA-MB-231) is reported as 18.3 µM (inactive) and the GI50 (DU-145) is reported as 18.2 µM (inactive). For the same compound, the GI50 (MDA-N) was 31.3 µM (inactive), the GI50 (COLO 205) was 77.6 µM (inactive) and the GI50 (NCI-H226) was > 100 µM (inactive). For the same compound, the GI50 (SW-620) was 25.2 µM (inactive), the GI50 (SK-OV-3) was 86.9 µM (inactive) and the GI50 (SK-MEL-5) was 41.2 µM (inactive). The GI50 (UACC-62) was 19.5 µM (inactive), the GI50 (NCI-H23) was 18.4 µM (inactive) and the GI50 (BT-549) was 18.4 µM (inactive). For the same compound, the GI50 (HOP-92) was 14.6 µM (inactive), the GI50 (UO-31) was 18.5 µM (inactive) and the GI50 (SNB-19) was 92.9 µM (inactive). For the same compound, the GI50 (KM12) was 18.5 µM (inactive), the GI50 (SK-MEL-28) was 37.2 µM (inactive) and the GI50 (M14) was 25.8 µM (inactive). For the same compound, the GI50 (SK-MEL-2) was 21.1 µM (inactive), the GI50 (HOP-62) was 18.2 µM (inactive) and the GI50 (SF-539) was 26.3 µM (inactive). For the same compound, the GI50 (HCT-15) was 25.8 µM, the GI50 (OVCAR-5) was > 100 µM (inactive) and the GI50 (SR) was 19.6 µM (inactive). For the same compound, the GI50 (CAKI-1) was 70.5 µM (inactive), the GI50 (MDA-MB-435) was 21.2 µM (inactive) and the GI50 (OVCAR-8) was 16.6 µM (inactive). For the same compound, the GI50 (ACHN) was 29.9 µM (inactive), the GI50 (K562) was 37.9 µM (inactive) and the GI50 (UACC-257) was 17.9 µM (inactive). For the same compound, the GI50 (MCF7) was 19.7 µM (inactive), the GI50 (HCT-116) was 17.9 µM (inactive) and the GI50 (PC-3) was 18.7 µM (inactive). For the same compound, the GI50 (T47D) was 21 µM (inactive), the GI50 (MOLT-4) was 23.8 µM (inactive) and the GI50 (LOX IMVI) was 19.1 µM (inactive). For the same compound, the GI50 (CCRF-CEM) was 34 µM (inactive), the GI50 (SF-295) was > 100 µM (inactive) and the GI50 (TK-10) was 19.5 µM (inactive). For the same compound, the GI50 (EKVX) was 40.1 µM (inactive), the GI50 (HL-60) was 32.7 µM (inactive) and the GI50 (OVCAR-4) was 35.8 µM (inactive). For the same compound, the GI50 (IGROV-1) was 18.2 µM (inactive), the GI50 (SN12C) was 19.6 µM (inactive) and the GI50 (786-0) was 19.3 µM (inactive). For the same compound, the GI50 (A549) was > 100 µM (inactive), the GI50 (HCC 2998) was 18.5 µM (inactive) and the GI50 (NCI/ADR-RES) was 65.9 µM (inactive). For the same compound, the GI50 (A498) was > 100 µM (inactive), the GI50 (U-251) was 23.4 µM (inactive) and the GI50 (RPMI-8226) was 29.4 µM (inactive). For the same compound, the GI50 (HT-29) was 18.6 µM (inactive).
